Values of other authors in PubChem BioAssay AID1259409 (Chemical Carcinogenesis Research Information System (CCRIS), 2018).

Test system: rodent chemically induced tumor inhibition, incidence and multiplicity
Assay: CCRIS tumor inhibitor studies
Settings: 57-97-6, Dose [Inhibitor]: 0, Species: RAT, Target Tissue: Type of Lesion: MAMMARY GLAND: TUMOR, Promoter: NONE USED

Compound: O=C1CC[C@@]2(O)[C@H]3Cc4ccc(O)c5c4[C@@]2(CCN3CC2CC2)[C@H]1O5
- tumour outcome (control, treated, inhibition, significance) (Carcinogen: 7,12-DIMETHYLBENZ[A]ANTHRACENE, 75 MG/KG DIET FOR 20 D BEGINNING 10 D PRIOR TO CARCINOGEN DOSE (STUDY DURATION: 130 D), Route [Inhibitor]: ORAL, Strain/Sex: SPRAGUE-DAWLEY/FEMALE, Dose [Carcinogen]: 15 MG IN 0.1 ML OF SESAME OIL ONCE): 100%, 73%, 27%, not significant
- tumour outcome (control, treated, inhibition, significance) (Carcinogen: 7,12-DIMETHYLBENZ[A]ANTHRACENE, 75 MG/KG DIET FOR 109 D BEGINNING 11 D POST CARCINOGEN DOSE (STUDY DURATION: 130 D), Route [Inhibitor]: ORAL, Strain/Sex: SPRAGUE-DAWLEY/FEMALE, Dose [Carcinogen]: 15 MG IN 0.1 ML OF SESAME OIL ONCE): 92%, 36%, 61%, p=0.0024
- tumour outcome (control, treated, inhibition, significance) (Carcinogen: 7,12-DIMETHYLBENZ[A]ANTHRACENE, 75 MG/KG DIET FOR 130 D BEGINNING 10 D PRIOR TO CARCINOGEN DOSE (STUDY DURATION: 130 D), Route [Inhibitor]: ORAL, Strain/Sex: SPRAGUE-DAWLEY/FEMALE, Dose [Carcinogen]: 15 MG IN 0.1 ML OF SESAME OIL ONCE): 83%, 46%, 45%, p=0.053
- tumour outcome (control, treated, inhibition, significance) (Carcinogen: DIMETHYLBENZ[A]ANTHRACENE, 1 MG/KG/D ADMINISTERED TO RESTRAINT-STRESSED RATS BEGINNING 2 DAYS POST CARCINOGEN DOSE AND CONTINUING FOR 18 WK (STU, Route [Inhibitor]: INTRAPERITONEAL, Strain/Sex: F344/FEMALE, Dose [Carcinogen]: 15 MG/ML SESAME OIL ONCE): 32%, 12%, 63%, not calculated
- tumour outcome (control, treated, inhibition, significance) (Carcinogen: DIMETHYLBENZ[A]ANTHRACENE, 1 MG/KG/D BEGINNING 2 DAYS POST CARCINOGEN DOSE AND CONTINUING FOR 18 WK (STUDY DURATION: 18 WK), Route [Inhibitor]: INTRAPERITONEAL, Strain/Sex: F344/FEMALE, Dose [Carcinogen]: 15 MG/ML SESAME OIL ONCE): 27%, 15%, 44%, not calculated
